Assay results taken from PMC12677607, “Identification of a Pair of Linear or Cyclic Naturally Inspired Bifunctional Lipopeptide Antibiotics That Overcome Antimicrobial Resistance” (Advanced Science, 2025).
≈ marks a conversion by molar mass, not a printed value. Bridge positions count the residues as written; N and C are the ends. Square brackets hold non-standard residues; d marks the D form. Peptide text beside a SMILES is read from it. * marks the point of attachment. Myristoyl = CCCCCCCCCCCCCC(=O)*; Orn = NCCC[C@H](N)C(=O)O; Dab = NCC[C@H](N)C(=O)O; Dap = NC[C@H](N)C(=O)O

Tests used:
[1] = tested on: vancomycin-resistant E. faecium 35682; assay: Mouse peritonitis-sepsis model; format: in vivo; settings: E. faecium 35682, ICR mice, single s.c. dose 1 h after infection, doses 50, 100, 150 mg kg^−1, n = 5
Procedure: Six‐week‐old female ICR mice were used in all experiments and housed in a temperature‐controlled room (25 °C) with 12‐h light/dark cycle and 30% relative humidity. Mice were observed twice daily for mortality and morbidity. Abnormal clinical signs were recorded if observed and totally monitored for five days. The detailed methods for the mouse peritonitis‐sepsis model were as follows.
Vancomycin‐resistant E. faecium 35682 was cultured in BHI broth at 37 °C fro 16 h and diluted with 5% type II porcine stomach mucin and 0.9% NaCl. E. faecium cell cultures were diluted to provide a challenge inoculum of 4.0 × 10^9 CFU in 0.5 mL and then administered into each mouse via intraperitoneal injection. 25 mice were randomly grouped into five per cohort (n = 5) and each cohort was given a single dose of either vehicle (20% solutol), aquicidine C4 at 50, 100 or 150 mg/kg and daptomycin at 100 mg kg^−1 with 15 mM CaCl2 1 h after infection via subcutaneous injection.

[2] = tested on: methicillin-resistant S. aureus USA300; assay: Neutropenic thigh infection model; format: in vivo, mouse; settings: 50 mg kg^−1 s.c. at 2, 10, 18 h, burden at 24 h, n = 8 thighs
Procedure: (§1) Six‐week‐old female ICR mice were used in all experiments and housed in a temperature‐controlled room (25 °C) with 12‐h light/dark cycle and 30% relative humidity. Meropenem‐resistant A. baumannii 1104008 or methicillin‐resistant S. aureus USA300 was cultured in the MH broth containing 50 µg mL^−1 of gentamycin and the MH broth, respectively, at 37 °C and 200 rpm overnight. Then, the strains A. baumannii 1104008 or S. aureus USA300 were washed twice in 0.9% saline and further diluted to verify the bacterial suspension with a challenge inoculum of ≈1.0 × 10^6 CFU in a volume of 0.05 mL per mouse thigh. Mice were rendered neutropenic by receiving 150 and 100 mg kg^−1 of cyclophosphamide via intraperitoneal injection on day‐4 and day‐1 before infection, respectively. For treating the thigh infection caused by A. baumannii 1104008, mice were given 100 µL of vehicle (20% solutol), colistin (25 mg kg^−1, 20% solutol), or aquicidine L (25 mg kg^−1, 20% solutol) at 2, 8, 14, and 20 h after post‐infection via subcutaneous injection. […] All mice were observed after infection for morbidity, and any abnormal signs were recorded. […] The treatment efficacies of aquicidine L or C4 were determined as the bacterial burden reduction in the thighs relative to both the vehicle and colistin‐ or vancomycin‐treated controls. All graphic data were analyzed using the GraphPad Prism software (Prism10).

S. aureus USA300 [3] = assay: Raising resistant mutants by direct plating; format: cell-based
S. aureus USA300 [4] = assay: Resistance acquisition by serial passaging; format: cell-based; settings: S. aureus USA300, sub-MIC levels, daily passage for 21 days, n = 2
Procedure: (§2) Overnight cultures S. aureus USA300 were diluted 10000‐fold in LB broth, and 100 µL of dilute cell suspension was added to 96‐well plates containing 100 µL serially diluted aquicidine C4, telomycin, and daptomycin (with 15 mM CaCl2). Overnight cultures K. pneumoniae CRKP5452 were diluted 5000‐fold in LB broth, and 100 µL of dilute cell suspension was added to 96‐well plates containing 100 µL serially diluted aquicidine L and colistin. After an incubation of 24 h at 37 °C, the MIC value was determined. […] The MIC value was recorded as described above, and the process was repeated daily for 21 days. Experiments were performed two independent times (n = 2).

Shigella Castellani LXX = assay: MIC assay (broth micro-dilution); format: cell-based; settings: Table S11; LB broth, 37 °C, 16 h, n = 2
Method in brief: (§3)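 MIC = lowest peptide concentration with no visible growth; LB broth microdilution, n = 2. Inoculum: overnight culture diluted 5000× (S. aureus 10000×). Peptides serially diluted 2-fold, 64–0.125 µg mL^−1 in the broth added to cells.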

K. pneumoniae 15580 = assay: MIC against colistin-resistant strain; format: cell-based; settings: Figure S127a
Procedure: (§4) All MIC assays were performed two independent times (n = 2) in 96‐well plates using a broth micro‐dilution method. The lowest concentration of that inhibited visible microbial growth was recorded as the MIC value.
(§5) For most of bacterial strains, overnight cultures were diluted 5000‐fold in LB broth. For E. faecium and S. aureus, overnight cultures were diluted 1000‐ and 10000‐fold in LB broth, respectively. 100 µL of diluted cells was mixed with 100 µL of LB broth containing each peptide ranging from 64 to 0.125 µg mL^−1 at 2‐fold serial dilutions.

[5] = tested on: meropenem-resistant A. baumannii 1104008; assay: Neutropenic thigh infection model; format: in vivo, mouse; settings: A. baumannii 1104008 thigh, 25 mg kg^−1 s.c. at 2, 8, 14, 20 h, burden at 24 h, n = 8 thighs
Procedure: as §1

[6] = tested on: Acinetobacter baumannii P53; assay: microbe, parasite or virus in culture; format: cell-based; settings: Table S11; LB broth, 37 °C, 16 h, n = 2
Method in brief: as §3

[7] = tested on: K. pneumoniae CRKP 5452 PhoQL348Q; assay: MIC against colistin-resistant mutant; format: cell-based
Procedure: as §4, §5, §2
Single‐nucleotide polymorphisms (SNPs) for telomycin‐, daptomycin‐ or colistin‐resistant mutants were identified using SNIPPY by mapping DNBSEQ‐seq reads to the reference genome of S. aureus USA300 or K. pneumoniae CRKP5452.

E. coli DH5α = assay: Membrane component feeding assay; format: cell-based; settings: feeding 2 to 128 µg mL^−1, E. coli DH5α, Figure 5e
Procedure: The effects of bacterial membrane components on aquicidine L's or aquicidine C4's anti‐bacterial activities were evaluated using E. coli DH5α or S. aureus USA300. […] All experiments were done in triplicate (n = 3) and repeated two independent times (n = 2).

K. pneumoniae CRKP5452 = assay: Resistance acquisition by serial passaging; format: cell-based; settings: K. pneumoniae CRKP5452, sub-MIC levels, daily passage for 21 days, n = 2
Procedure: as §2

| Structure (SMILES) | minimal dose required for 100% survival [1] | reduction in CFUs compared with the vehicle [2] | increase in MIC of colonies from direct plating on antibiotic-containing solid media (S. aureus USA300 [3]) | increase of MIC during serial passaging (S. aureus USA300 [4]) | MIC Shigella Castellani LXX (Shigella Castellani LXX) | antibacterial activity (MIC) K. pneumoniae 15580 (K. pneumoniae 15580) | reduction in CFUs compared with the vehicle [5] | MIC Acinetobacter baumannii P53 [6] | antibacterial activity (MIC) K. pneumoniae CRKP 5452 PhoQL348Q ([7]; Figure S127a, colistin-resistant mutant from serial passaging) | increase in MIC against resistant mutant compared to wild type ([7]; K. pneumoniae CRKP5452 PhoQ^L348Q vs wild type) | inhibition of antibacterial activity by LPS and PE (E. coli DH5α) | increase of MIC during serial passaging (K. pneumoniae CRKP5452) |
| --- | --- | --- | --- | --- | --- | --- | --- | --- | --- | --- | --- | --- |
| CCCCCCCCCCCCCC(=O)N[C@@H](CN)C(=O)N[C@H](C(=O)N[C@@H](CC(C)C)C(=O)N[C@H]1COC(=O)[C@H](Cc2ccccc2)NC(=O)[C@H](CC(N)=O)NC(=O)[C@H](CCCN)NC(=O)[C@H]([C@@H](C)CC)NC(=O)[C@H](Cc2ccccc2)NC(=O)[C@H](CN)NC(=O)[C@H](CCN)NC1=O)[C@@H](C)O [synAQU5-C4] (Myristoyl-[Dap]TLS[Dab][Dap]FI[Orn]NF; ester 4-C) | 100 mg/kg | 3 log10 | did not show more than a one‐fold increase in MIC | no higher than twofold | – | – | – | – | – | – | – | – |
| CCCCCCCCCCCCCC(=O)N[C@@H](CN)C(=O)N[C@H](C(=O)N[C@@H](CC(C)C)C(=O)N[C@@H](CO)C(=O)N[C@@H](CCN)C(=O)N[C@@H](CN)C(=O)N[C@@H](Cc1ccccc1)C(=O)N[C@H](C(=O)N[C@@H](CCCN)C(=O)N[C@@H](CC(N)=O)C(=O)N[C@@H](Cc1ccccc1)C(=O)O)[C@@H](C)CC)[C@@H](C)O [synAQU5-L] (Myristoyl-[Dap]TLS[Dab][Dap]FI[Orn]NF-OH) | – | – | – | – | 8 µg/mL (≈ 5.56 µM) | 8 µg/mL | 3 log10 | 8 µg/mL (≈ 5.56 µM) | 16 µg/mL | 4 fold | stronger dose‐dependent inhibition | no higher than two‐fold |
